Common to all, as to assay: NCI tumour cell line growth inhibition, 48 h
In assay [1] the test system is HCT-116.
For assay [2], the system named is UACC-257.
Assay [3] has as its system MDA-MB-231.
In assay [4] the test system is 786-0.
Assay [5] concerns SNB-75.
In assay [6] the test system is OVCAR-5.
In assay [7] the test system is LOX IMVI.
Assay [8] concerns MOLT-4.
Assay [9] has as its system M14.
The subject of assay [10] is MDA-N.
In assay [11] the test system is SNB-19.
Assay [12] deals with NCI-H460.
Assay [13] has as its system SW-620.
In assay [14] the test system is IGROV-1.
Assay [15] relates to RXF 393.
The test system of assay [16] is CCRF-CEM.
The subject of assay [17] is K562.
In assay [18] the test system is SK-MEL-5.
The test system of assay [19] is NCI-H226.
For assay [20], the system named is SR.

Structures are written as SMILES. Several values for one entry are separate records, joined by “and”; a condition that tells them apart may be missing. Equal values may be shown once.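 96-well plates; 48 h exposure; 5 concentrations. Endpoints by linear interpolation between flanking doses. Not reached: highest tested concentration assigned. At the GI50, growth is halved.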 Activity calls are given as the source filed them. Rule as the data show it: active = GI50 up to about 1.1 µM and inactive = higher.

Results on twelve compounds are retold here after ChEMBL document CHEMBL1201862, “PubChem BioAssay data set” (2004).

On to `N=C(N)NCCNC(=N)N`, for which the GI50 in [1] was > 100 µM (inactive); in assay [2], > 100 µM (inactive); in assay [3], > 100 µM (inactive); in assay [4], > 100 µM (inactive); in assay [5], 89.9 µM (inactive); in assay [6], > 100 µM (inactive). Also, the GI50 in assay [7], in assay [8], in assay [9], in assay [10], in [11] and in assay [12] was > 100 µM (inactive) each time. Further, the GI50 in assay [13], in [14], in assay [15], in assay [16], in assay [17] and in [18] was > 100 µM (inactive) each time.

Regarding `CC(C)=NN/C(=N\c1ccc(Cl)cc1)NS(=O)(=O)c1ccc(C)cc1`, the GI50 in [1] is 76.4 µM (inactive); in assay [2], 35.2 µM (inactive); in assay [3], 73.1 µM (inactive); in [4], 62.4 µM (inactive); in [6], > 100 µM (inactive); in [7], 87.7 µM (inactive). Besides, the GI50 in assay [8] is 41.5 µM (inactive); in [9], > 100 µM (inactive); in assay [10], > 100 µM (inactive); in assay [11], > 100 µM (inactive); in [12], 57.8 µM (inactive); in assay [19] it was > 100 µM (inactive). Moreover, the GI50 is > 100 µM (inactive) in assay [13]; 77.4 µM (inactive) in assay [14]; > 100 µM (inactive) in [16]; 69.3 µM (inactive) in [17]; 60.3 µM (inactive) in assay [18].

For `CCOC(=O)CCCNC(=O)CCCCC(=O)N(C)C`, the GI50 in assay [1], in assay [2], in assay [3], in [4], in assay [6] and in assay [7] was > 100 µM (inactive) throughout. Also, the GI50 in [8], in [9], in assay [10], in [11], in [12] and in assay [19] was > 100 µM (inactive) in each case. Further, the GI50 in assay [13], in assay [14], in [16], in assay [17] and in [18] was > 100 µM (inactive) throughout.

`[N-]=[N+]=NCN1C(=O)C2C3C=CC(C2C1=O)C1C2C(=O)N(CN=[N+]=[N-])C(=O)C2C31` (stereo not drawn): the GI50 in assay [1], in assay [2], in assay [4], in assay [7], in [9] and in assay [10] was > 100 µM (inactive) in each case. The GI50 in assay [11], in assay [12], in assay [13], in assay [14], in assay [17] and in assay [18] was > 100 µM (inactive) throughout.

In the case of `Cc1ccccc1/N=N/c1c(O)ccc2ccccc12`, the GI50 in [1] was 69.5 µM (inactive); in [2] it was > 100 µM (inactive); in [3], > 100 µM (inactive); in [4], 48.9 µM (inactive); in [5] it was > 100 µM (inactive); in assay [6], > 100 µM (inactive). In addition, the GI50 in assay [7] was 40.5 µM (inactive); in assay [8], > 100 µM (inactive); in [9] it was > 100 µM (inactive); in [10], > 100 µM (inactive); in assay [11], > 100 µM (inactive); in [19], > 100 µM (inactive). The GI50 in assay [13] is > 100 µM (inactive); in assay [14], 59.2 µM (inactive); in [15] it was > 100 µM (inactive); in assay [16] it was > 100 µM (inactive); in assay [17], > 100 µM (inactive); in [18], > 100 µM (inactive).

Take `O=C(/C=C/c1ccccc1)CSc1nc[nH]n1`: the GI50 in [1] was 33 µM (inactive); in assay [2] it was > 100 µM (inactive); in [4], > 100 µM (inactive); in assay [5] it was 14.3 µM (inactive); in [6], > 100 µM (inactive); in [8], 63.2 µM (inactive). The GI50 in assay [9] is > 100 µM (inactive); in assay [10], > 100 µM (inactive); in assay [11], > 100 µM (inactive); in assay [12] it was 79.4 µM (inactive); in assay [19], > 100 µM (inactive); in assay [20] it was 62.1 µM (inactive). In addition, the GI50 in assay [13] was 65.5 µM (inactive); in assay [14], > 100 µM (inactive); in [15], > 100 µM (inactive); in assay [16] it was 34.8 µM (inactive); in assay [17], 46.8 µM (inactive); in assay [18], 38.5 µM (inactive).

For `NNC(=O)c1cc(=O)[nH][nH]1`, the GI50 in assay [1], in [2], in assay [3], in assay [4], in assay [5] and in [6] was > 100 µM (inactive) in each case. The GI50 in assay [8], in assay [9], in assay [10], in assay [11], in assay [12] and in assay [19] was > 100 µM (inactive) each time. The GI50 in [13], in assay [14], in [15], in assay [16], in assay [17] and in assay [18] was > 100 µM (inactive) in each case.

Consider `COc1cccc2c(=O)c3c(O)c4cc(N(C)C)ccc4c(OC(C)=O)c3oc12`, for which the GI50 is 13.9 µM (inactive) in assay [1]; 12.9 µM (inactive) in assay [2]; 11.4 µM (inactive) in assay [3]; 11.7 µM (inactive) in assay [4]; 15.5 µM (inactive) in assay [5]; 38.9 µM (inactive) in assay [6]. Moreover, the GI50 in assay [7] was 12 µM (inactive); in [8], 3.1 µM (inactive); in [9] it was 9.98 µM (inactive); in assay [10], 13.7 µM (inactive); in assay [11], 33.2 µM (inactive); in assay [12] it was 18.2 µM (inactive). Besides, the GI50 in [19] was 23.2 µM (inactive); in assay [13], 7.41 µM (inactive); in [15], 4.72 µM (inactive); in assay [16], 5.33 µM (inactive); in [17] it was 15.6 µM (inactive); in assay [18], 12.6 µM (inactive).

Take `CNC(=O)NS(=O)(=O)c1ccc(C)cc1.NS(=O)O`: the GI50 in assay [1], in assay [2], in assay [3], in assay [4], in assay [5] and in assay [6] was > 100 µM (inactive) each time. Moreover, the GI50 in assay [7], in assay [8], in assay [9], in assay [10], in [11] and in assay [12] was > 100 µM (inactive) in each case. Moreover, the GI50 in assay [13], in assay [14], in assay [15], in [16], in [17] and in assay [18] was > 100 µM (inactive) each time.

For `CCN(CC)CCCNc1ccc2nc(C)n3c4ccc(O)cc4c(=O)c1c23`, the GI50 was 0.713 µM (active) in assay [1]; 15.5 µM (inactive) in [2]; 1.81 µM (inactive) in [4]; 0.881 µM (active) in assay [5]; 6.22 µM (inactive) in assay [6]; 1.14 µM (inactive) in assay [7]. In addition, the GI50 in assay [8] is 0.301 µM (active); in assay [9], 8.61 µM (inactive); in assay [10], 7.53 µM (inactive); in assay [11] it was 6.7 µM (inactive); in assay [12] it was 0.838 µM (active); in assay [19], 6.46 µM (inactive). Also, the GI50 in assay [13] is 0.957 µM (active); in assay [14], 1.64 µM (inactive); in assay [15], 3.89 µM (inactive); in assay [16], 1.79 µM (inactive); in assay [17], 2.97 µM (inactive); in assay [18], 10.3 µM (inactive).

As for `O[C@H]1[C@H](O)[C@@H](O)[C@H](O)[C@@H](O)[C@H]1O` [INOSITOL], the GI50 was > 1000 µM (inactive) in assay [1]; > 1000 µM (inactive) in assay [2]; > 1000 µM (inactive) in [3]; > 1000 µM (inactive) in assay [4]; 0.1 µM (active) in [5]; > 1000 µM (inactive) in assay [6]. The GI50 in assay [7] was > 1000 µM (inactive); in [8] it was 154 µM (inactive); in assay [9], > 1000 µM (inactive); in [11], > 1000 µM (inactive); in assay [12] it was > 1000 µM (inactive); in assay [19], > 1000 µM (inactive). For the same compound, the GI50 in assay [20] is 56.6 µM (inactive); in assay [13], > 1000 µM (inactive); in assay [14] it was > 1000 µM (inactive); in [15], > 1000 µM (inactive); in [16] it was 1.7 µM (inactive); in [17], > 1000 µM (inactive). Moreover, the GI50 in [18] is > 1000 µM (inactive).

Consider `COc1cc(-c2oc3c(OC)c(OC)cc(O)c3c(=O)c2OC)ccc1O` [TERNATIN], for which the GI50 in [1] is 5.04 µM (inactive) and 8.69 µM (inactive); in assay [2] it was > 100 µM (inactive); in assay [3], 15.2 µM (inactive); in assay [4], 6.32 µM (inactive) and 12 µM (inactive); in [6] it was 34.6 µM (inactive); in assay [8], 12.7 µM (inactive). The GI50 in assay [10] was 15.2 µM (inactive); in [11] it was 41.6 µM (inactive) and 49.8 µM (inactive); in [14], 4.89 µM (inactive) and 4.1 µM (inactive); in assay [15], 6.18 µM (inactive) and 3.87 µM (inactive); in assay [16], 3.38 µM (inactive) and 2.42 µM (inactive); in [17], 27.5 µM (inactive).
